Test results reported in article PMC6857076 (Pharmacology Research & Perspectives, 2019).
Where two headings read alike, the source gives them in different places.

What was measured:
[1] = system: IL-27 cytokine receptor (JAK1/JAK2, JAK1/TYK2); experiment: Human whole blood, IL-27-induced pSTAT1, lymphocytes; assay type: cell-based; settings: Lymphocyte
Protocol: Blood was warmed to 37°C prior to use.
(§1) Anti‐cell surface antibodies were added 15 minutes prior to cytokine stimulation; anti‐CD14‐Pacific Blue (0.5 µL/well) to GM‐CSF, IFNγ, and TPO‐treated samples; anti‐CD3‐BV650 (0.5 µL/well) plus anti‐CD14‐Pacific Blue (0.5 µL/well) to IL‐6‐treated samples; and anti‐CD19‐BV421 (0.5 µL/well) plus anti‐CD14‐AF488 (0.5 µL/well) to IL‐13‐treated samples.
(§2) The lymphocyte population was gated for pSTAT histogram analysis for IFNα‐, IL‐2‐, IL‐3‐, IL‐4‐, IL‐7‐, IL‐10‐, IL‐12‐, IL‐15‐, IL‐21‐, IL‐23‐, and IL‐27‐treated samples; granulocyte population for G‐CSF‐treated samples; CD14^+ cells for GM‐CSF‐, IFNγ‐, and TPO‐treated samples; CD3^+ cells and CD14^+ cells for IL‐6‐treated samples; CD14^+ cells and CD19^+ cells for IL‐13‐treated samples; all events (entire populations) for EPO‐treated cells. Background fluorescence was defined using unstimulated cells and a gate was placed at the foot of the peak to include ~0.5% gated population.
(§3) Histogram statistical analysis was performed using FACSDiva version 8.0.1 (BD Biosciences). Relative fluorescence unit (RFU), which measures the level of pSTAT, was calculated by multiplying the percent positive population and its mean fluorescence. Data from 11 compound concentrations (singlicate at each concentration) were normalized as a percentage of control, as shown in Equation 1:(1) %ofcontrol=100×A−B/C−B
(§4) A, RFU from wells containing compound and cytokine; B, RFU from wells without cytokine (minimum fluorescence); C, RFU from wells containing only cytokine (maximum fluorescence).
(§5) Inhibition curves and IC50 values were determined using Prism software (Version 7, GraphPad).

[2] = system: IL-4 cytokine receptor (JAK1/JAK3); experiment: Human whole blood, IL-4-induced pSTAT5, lymphocytes; assay type: cell-based; settings: Lymphocyte
Protocol: Blood was warmed to 37°C prior to use.
(§6) Then, 5 µL of PBS or cytokine was added to each well (5 µL/well; final, 10 U/mL EPO, 100 ng/mL G‐CSF, 10 ng/mL GM‐CSF, 5000 U/mL IFNα, 100 ng/mL IFNγ, 50 ng/mL IL‐2, 50 ng/mL IL‐3, 5 ng/mL IL‐4, 50 ng/mL IL‐6, 30 ng/mL IL‐7, 30 ng/mL IL‐10, 30 ng/mL IL‐12, 30 ng/mL IL‐13, 30 ng/mL IL‐15, 50 ng/mL IL‐21, 25 ng/mL IL‐23, 1000 ng/mL IL‐27) and incubated for 15 minutes. […]
as §2
(§7) Histogram statistical analysis was performed using FACSDiva version 8.0.1 (BD Biosciences). Relative fluorescence unit (RFU), which measures the level of pSTAT, was calculated by multiplying the percent positive population and its mean fluorescence. […]
as §5

[3] = system: IL-7 cytokine receptor (JAK1/JAK3); experiment: Human whole blood, IL-7-induced pSTAT5, lymphocytes; assay type: cell-based; settings: Lymphocyte
Protocol: Blood was warmed to 37°C prior to use.
(§8) Then, 5 µL of PBS or cytokine was added to each well (5 µL/well; final, 10 U/mL EPO, 100 ng/mL G‐CSF, 10 ng/mL GM‐CSF, 5000 U/mL IFNα, 100 ng/mL IFNγ, 50 ng/mL IL‐2, 50 ng/mL IL‐3, 5 ng/mL IL‐4, 50 ng/mL IL‐6, 30 ng/mL IL‐7, 30 ng/mL IL‐10, 30 ng/mL IL‐12, 30 ng/mL IL‐13, 30 ng/mL IL‐15, 50 ng/mL IL‐21, 25 ng/mL IL‐23, 1000 ng/mL IL‐27) and incubated for 15 minutes. Anti‐cell surface antibodies were added 15 minutes prior to cytokine stimulation; anti‐CD14‐Pacific Blue (0.5 µL/well) to GM‐CSF, IFNγ, and TPO‐treated samples; anti‐CD3‐BV650 (0.5 µL/well) plus anti‐CD14‐Pacific Blue (0.5 µL/well) to IL‐6‐treated samples; and anti‐CD19‐BV421 (0.5 µL/well) plus anti‐CD14‐AF488 (0.5 µL/well) to IL‐13‐treated samples.
(§9) One more wash was done with staining buffer and all samples were finally suspended in 150 µL/well of the desired anti‐pSTAT antibodies at 1:150 dilution in staining buffer; anti‐pSTAT1‐AF647 in IFNγ‐treated samples; anti‐pSTAT1‐AF488 and anti‐pSTAT3‐AF647 in IFNα‐, IL‐6‐, and IL‐27‐treated samples; anti‐pSTAT3‐AF647 in G‐CSF‐, IL‐10‐, IL‐21‐, and IL‐23‐treated samples; anti‐pSTAT4‐AF647 in IL‐12‐treated samples; anti‐pSTAT5‐AF647 in EPO‐, GM‐CSF‐, IL‐2‐, IL‐3‐, IL‐7‐, IL‐15‐, and TPO‐treated samples; anti‐pSTAT5‐AF488 and anti‐pSTAT6‐AF647 in IL‐4‐treated samples; and anti‐pSTAT6‐AF647 in IL‐13‐treated samples.
as §2, §3, §4, §5

[4] = system: GM-CSF cytokine receptor (JAK2/JAK2); experiment: Human whole blood, GM-CSF-induced pSTAT5, CD14+ cells; assay type: cell-based; settings: Homo sapiens
Protocol: Blood was warmed to 37°C prior to use.
as §8, §9, §2, §3, §4, §5

[5] = system: IFNα cytokine receptor (JAK1/TYK2); experiment: Human whole blood, IFNα-induced pSTAT3, lymphocytes; assay type: cell-based; settings: Lymphocyte
Protocol: Blood was warmed to 37°C prior to use.
as §8, §9, §2, §3, §4, §5

[6] = system: IFNγ cytokine receptor (JAK1/JAK2); experiment: Human whole blood, IFNγ-induced pSTAT1, CD14+ cells; assay type: cell-based; settings: for IC50: Homo sapiens
Protocol: Blood was warmed to 37°C prior to use.
as §8, §9, §2, §3, §4, §5

[7] = system: IL-21 cytokine receptor (JAK1/JAK3); experiment: Human whole blood, IL-21-induced pSTAT3, lymphocytes; assay type: cell-based; settings: Lymphocyte
Protocol: Blood was warmed to 37°C prior to use.
as §8, §9, §2, §3, §4, §5

[8] = system: IL-23 cytokine receptor (JAK2/TYK2); experiment: Human whole blood, IL-23-induced pSTAT3, lymphocytes; assay type: cell-based; settings: Lymphocyte
Protocol: Blood was warmed to 37°C prior to use.
as §6, §2, §7, §5

[9] = phase 3 RA studies; cited from earlier work
[10] = unbound, Cav × fu; upadacitinib 15 mg QD
[11] = system: IL-13 cytokine receptor (JAK1/JAK2, JAK1/TYK2); experiment: Human whole blood, IL-13-induced pSTAT6, CD14+ cells; assay type: cell-based
Protocol: Blood was warmed to 37°C prior to use.
as §1, §2, §3, §4, §5

CRP = settings: RA; upadacitinib 6 mg BID; cited from earlier work
[12] = system: IL-10 cytokine receptor (JAK1/TYK2); experiment: Human whole blood, IL-10-induced pSTAT3, lymphocytes; assay type: cell-based; settings: Lymphocyte
Protocol: Blood was warmed to 37°C prior to use.
as §8, §9, §2, §3, §4, §5

[13] = system: IL-6 cytokine receptor (JAK1/JAK2, JAK1/TYK2); experiment: Human whole blood, IL-6-induced pSTAT1, CD14+ cells; assay type: cell-based
Protocol: Blood was warmed to 37°C prior to use.
as §1, §2, §3, §4, §5

[14] = human; upadacitinib 15 mg QD; cited from earlier work
[15] = system: IL-27 cytokine receptor (JAK1/JAK2, JAK1/TYK2); experiment: Human whole blood, IL-27-induced pSTAT3, lymphocytes; assay type: cell-based; settings: Lymphocyte
Protocol: Blood was warmed to 37°C prior to use.
as §8, §9, §2, §3, §4, §5

[16] = system: IL-4 cytokine receptor (JAK1/JAK3); experiment: Human whole blood, IL-4-induced pSTAT6, lymphocytes; assay type: cell-based; settings: Lymphocyte
Protocol: Blood was warmed to 37°C prior to use.
as §8, §9, §2, §3, §4, §5

in vitro = settings: both, human, pooled human plasma
NK cell counts = settings: RA; upadacitinib 6 mg BID; week 12; cited from earlier work
[17] = system: IL-12 cytokine receptor (JAK2/TYK2); experiment: Human whole blood, IL-12-induced pSTAT4, lymphocytes; assay type: cell-based; settings: for IC50: Homo sapiens, Lymphocyte
Protocol: Blood was warmed to 37°C prior to use.
as §8, §9, §2, §3, §4, §5

[18] = system: IL-15 cytokine receptor (JAK1/JAK3); experiment: Human whole blood, IL-15-induced pSTAT5, lymphocytes; assay type: cell-based; settings: for IC50: Homo sapiens, Lymphocyte
Protocol: Blood was warmed to 37°C prior to use.
as §8, §9, §2, §3, §4, §5

[19] = system: JAK-dependent cytokine receptors; experiment: Integrated modeling: calculated cytokine receptor inhibitory concentrations (ICxx); design: species or system human; settings: calculated ICxx at clinically meaningful doses, Figure 1
Description: An integrated modeling approach was applied to determine cytokine receptor inhibition profiles. Whole blood IC50 values were converted to unbound values (IC50,u) using measured blood‐to‐plasma ratios and measured fu values, as shown in Equation 2:(2) IC50,u=IC50/blood:plasma ratio×fu

[20] = system: IL-6 cytokine receptor (JAK1/JAK2, JAK1/TYK2); experiment: Human whole blood, IL-6-induced pSTAT1, CD3+ cells; assay type: cell-based; settings: for IC50: Homo sapiens
Protocol: Blood was warmed to 37°C prior to use.
as §8, §9, §2, §3, §4, §5

[21] = system: IL-3 cytokine receptor (JAK2/JAK2); experiment: Human whole blood, IL-3-induced pSTAT5, lymphocytes; assay type: cell-based; settings: Homo sapiens, Lymphocyte
Protocol: Blood was warmed to 37°C prior to use.
as §8, §9, §2, §3, §4, §5

[22] = system: EPO cytokine receptor (JAK2/JAK2); experiment: Human whole blood spiked with CD34+-derived erythroid progenitor cells, EPO-induced pSTAT5; assay type: cell-based; settings: for IC50: Homo sapiens, Erythroid progenitor cell
Protocol: CD34^+ cells were then harvested, washed once with Dulbecco's (D)‐PBS, and suspended at 0.5 x 10^6 cells/mL in human whole blood to be used in the EPO stimulation assay.
Blood was warmed to 37°C prior to use.
Background fluorescence was defined using unstimulated cells and a gate was placed at the foot of the peak to include ~0.5% gated population.
as §3, §4, §5

[23] = system: TPO cytokine receptor (JAK2/JAK2); experiment: Human whole blood, TPO-induced pSTAT5, CD14+ cells; assay type: cell-based; settings: Homo sapiens
Protocol: Blood was warmed to 37°C prior to use.
as §8, §9, §2, §3, §4, §5

[24] = system: IFNα cytokine receptor (JAK1/TYK2); experiment: Human whole blood, IFNα-induced pSTAT1, lymphocytes; assay type: cell-based; settings: for IC50: Homo sapiens, Lymphocyte
Protocol: Blood was warmed to 37°C prior to use.
as §8, §9, §2, §3, §4, §5

[25] = system: IL-2 cytokine receptor (JAK1/JAK3); experiment: Human whole blood, IL-2-induced pSTAT5, lymphocytes; assay type: cell-based; settings: Lymphocyte
Protocol: Blood was warmed to 37°C prior to use.
as §8, §9, §2, §3, §4, §5

[26] = system: IL-13 cytokine receptor (JAK1/JAK2, JAK1/TYK2); experiment: Human whole blood, IL-13-induced pSTAT6, CD19+ cells; assay type: cell-based
Protocol: Blood was warmed to 37°C prior to use.
as §1, §2, §3, §4, §5

[27] = system: IL-6 cytokine receptor (JAK1/JAK2, JAK1/TYK2); experiment: Human whole blood, IL-6-induced pSTAT3, CD3+ cells; assay type: cell-based
Protocol: Blood was warmed to 37°C prior to use.
as §1, §2, §3, §4, §5

CC[C@@H]1CN(C(=O)NCC(F)(F)F)C[C@@H]1c1cnc2cnc3[nH]ccc3n12 [Upadacitinib] gave an IC50 ([1]; read-out: IC50, IL-27, pSTAT1) of 52 nM, an IC50 ([1]; read-out: IC50,u, IL-27, pSTAT1) of 25 nM and an IC50 ([2]; read-out: IC50, IL-4, pSTAT5) of 8.2 nM. For the same compound, the IC50 ([2]; read-out: IC50,u, IL-4, pSTAT5) was 4 nM, the IC50 ([3]; read-out: IC50, IL-7, pSTAT5) was 101 nM and the IC50 ([3]; read-out: IC50,u, IL-7, pSTAT5) was 49 nM. The IC50 ([4]; read-out: IC50, GM-CSF, pSTAT5) was 782 nM, the IC50 ([4]; read-out: IC50,u, GM-CSF, pSTAT5) was 377 nM and the IC50 ([5]; read-out: IC50, IFNα, pSTAT3) was 19 nM. For the same compound, the IC50 ([5]; read-out: IC50,u, IFNα, pSTAT3) was 9.2 nM, the “LogIC50, IFNγ induced pSTAT1, single experiment” value [6] was -7.002 log[M] and the IC50 ([6]; read-out: IC50, IFNγ induced pSTAT1, single experiment) was 99.6 nM. The IC50 ([6]; read-out: IC50, IFNγ, pSTAT1) was 109 nM, the IC50 ([6]; read-out: IC50,u, IFNγ, pSTAT1) was 53 nM and the IC50 ([7]; read-out: IC50, IL-21, pSTAT3) was 51 nM. It also gave an IC50 ([7]; read-out: IC50,u, IL-21, pSTAT3) of 25 nM, an IC50 ([8]; read-out: IC50, IL-23, pSTAT3) of 242 nM and an IC50 ([8]; read-out: IC50,u, IL-23, pSTAT3) of 117 nM. The herpes zoster occurrence [9] was “reported”, the “Cav,u” value [10] was 27.4 nM and the IC50 ([11]; read-out: IC50, IL-13, pSTAT6, CD14+ cells) was 126 nM. The IC50 ([11]; read-out: IC50,u, IL-13, pSTAT6, CD14+ cells) was 61 nM, the “reduction of CRP levels from baseline to week 12” value (CRP) was -8.8 mg/L and the IC50 ([12]; read-out: IC50, IL-10, pSTAT3) was 90 nM. The IC50 ([12]; read-out: IC50,u, IL-10, pSTAT3) was 43 nM, the IC50 ([13]; read-out: IC50, IL-6, pSTAT1, CD14+ cells) was 26 nM and the IC50 ([13]; read-out: IC50,u, IL-6, pSTAT1, CD14+ cells) was 13 nM. For the same compound, the Cav [14] was 49 nM, the IC50 ([15]; read-out: IC50, IL-27, pSTAT3) was 44 nM and the IC50 ([15]; read-out: IC50,u, IL-27, pSTAT3) was 21 nM. It also gave an IC50 ([16]; read-out: IC50, IL-4, pSTAT6) of 77 nM, an IC50 ([16]; read-out: IC50,u, IL-4, pSTAT6) of 37 nM and a fraction unbound at 6 h, 1 μmol/L (in vitro) of 0.56. The “change from baseline in NK cell counts” value (NK cell counts) was “approximately −50 cells/mm^3”, the “LogIC50, IL-12 induced pSTAT4, single experiment” value [17] was -6.953 log[M] and the IC50 ([17]; read-out: IC50, IL-12, pSTAT4) was 145 nM. The IC50 ([17]; read-out: IC50, IL-12 induced pSTAT4, single experiment) was 112 nM, the IC50 ([17]; read-out: IC50,u, IL-12, pSTAT4) was 70 nM and the “LogIC50, IL-15 induced pSTAT5, single experiment” value [18] was -7.157 log[M]. It also gave an IC50 ([18]; read-out: IC50, IL-15, pSTAT5) of 64 nM, an IC50 ([18]; read-out: IC50, IL-15 induced pSTAT5, single experiment) of 69.7 nM and an IC50 ([18]; read-out: IC50,u, IL-15, pSTAT5) of 31 nM. For the same compound, the “Inhibition (ICxx) of JAK1/JAK2-mediated (IFNγ, G-CSF) and JAK2-mediated (TPO, IL-3, GM-CSF) cytokine receptors vs other JAK inhibitors” value [19] was “numerically greater”, the “LogIC50, IL-6 induced pSTAT1 (CD3+ cells), single experiment” value [20] was -7.893 log[M] and the IC50 ([20]; read-out: IC50, IL-6, pSTAT1, CD3+ cells) was 12 nM. It also gave an IC50 ([20]; read-out: IC50, IL-6 induced pSTAT1 (CD3+ cells), single experiment) of 12.8 nM, an IC50 ([20]; read-out: IC50,u, IL-6, pSTAT1, CD3+ cells) of 5.9 nM and an IC50 ([21]; read-out: IC50, IL-3, pSTAT5) of 326 nM. For the same compound, the IC50 ([21]; read-out: IC50,u, IL-3, pSTAT5) was 158 nM, the “LogIC50, EPO induced pSTAT5, single experiment” value [22] was -6.909 log[M] and the IC50 ([22]; read-out: IC50, EPO induced pSTAT5, single experiment) was 123 nM. For the same compound, the IC50 ([22]; read-out: IC50, EPO, pSTAT5) was 174 nM, the IC50 ([22]; read-out: IC50,u, EPO, pSTAT5) was 84 nM and the IC50 ([23]; read-out: IC50, TPO, pSTAT5) was 297 nM. The IC50 ([23]; read-out: IC50,u, TPO, pSTAT5) was 143 nM, the “LogIC50, IFNα induced pSTAT1, single experiment” value ([24]; Figure S1B, Donor 256, Exp 1) was -7.685 log[M] and the IC50 ([24]; read-out: IC50, IFNα induced pSTAT1, single experiment) was 20.7 nM. The IC50 ([24]; read-out: IC50, IFNα, pSTAT1) was 21 nM, the IC50 ([24]; read-out: IC50,u, IFNα, pSTAT1) was 10 nM and the IC50 ([25]; read-out: IC50, IL-2, pSTAT5) was 50 nM. It also gave an IC50 ([25]; read-out: IC50,u, IL-2, pSTAT5) of 24 nM, an IC50 ([26]; read-out: IC50, IL-13, pSTAT6, CD19+ cells) of 72 nM and an IC50 ([26]; read-out: IC50,u, IL-13, pSTAT6, CD19+ cells) of 35 nM. For the same compound, the IC50 ([27]; read-out: IC50, IL-6, pSTAT3, CD3+ cells) was 152 nM and the IC50 ([27]; read-out: IC50,u, IL-6, pSTAT3, CD3+ cells) was 73 nM.
